The text below walks through data of US20080292721A1, “Bioactive acid agrichemical compositrions and use thereof” (priority 2007, published 2008).

In the test the test system is E. amylovora 153N. In words: Fire blight on crabapples. It is filed as in vivo. Also on record: Blossom Incidence / Shoot Incidence: unit not given here. To be noted: for Blossom Incidence: mean of counts; for Canker Size / Shoot Incidence: Day 63. As for the experimental part:
A study of the bioefficacy of the various agrichemical compositions, including bioactive acid solutions and blends thereof with an antibiotic agrichemical, were evaluated to assess their bioefficacy against fire blight on crabapples. The study was conducted on 5 year old Snow Drift crabapple trees, with each of the compositions being applied to ten trees in two-subplots of five trees, four different times: at 100% bloom-day 1, a second application was made on day 4, a third on day 11 and a final treatment on day 19. The trees were inoculated with E. amylovora […] at a concentration of 4×10^6 cells per milliliter on day 1, following drying of the treatment, with the inoculation being repeated on day 13. Evaluation for fire blight was completed on 100 blossoms for each of the subplots on day 12, day 19 and day 27. Additionally, the incidence of shoot infection and the length of […] evaluated on day 63. The test compositions were prepared by forming solutions of the bioactive agents. Two different dilutions of the MI2 bioactive were evaluated, the first employing 94.46 ml/gallon (25 ml/l) of water (5 ppm of each metal) and the second 188.9 ml/gallon (50 ml/l) of water (10 ppm of each metal). […] Finally, copper hydroxide was diluted at a rate of 1 lb/gallon (119.8 g/l). Each of the compositions and blends were spray applied at a rate of 50 gallons (189.3 l) pre acre. The results are presented as the mean of the counts.

SMILES strings stand for the structures.

For the molecule `[H]/N=C(/N)N[C@H]1[C@H](O)[C@@H](O)[C@H](O[C@@H]2O[C@@H](C)[C@](O)(C=O)[C@H]2O[C@@H]2O[C@@H](CO)[C@H](O)[C@@H](O)[C@@H]2NC)[C@@H](N/C(N)=N\[H])[C@@H]1O` [streptomycin], the “Blossom Incidence” value is given as 1.8 (Day 12, rate 0.49 lb/a); 4.8 (Day 19, rate 0.49 lb/a); 3.09 (Day 27, rate 0.49 lb/a). Also, the “Canker Size” value (rate 0.49 lb/a) came to 0.0 cm. Also, the “Shoot Incidence” value (rate 0.49 lb/a) is 1.2.

Consider `[Cu+2].[OH-].[OH-]` [copper hydroxide], for which the “Blossom Incidence” value (Day 12, rate 5 lbs/a (2.27 kg/a)) was 3.1; the “Blossom Incidence” value (Day 19, rate 5 lbs/a (2.27 kg/a)) came to 2.2; the “Blossom Incidence” value (Day 27, rate 5 lbs/a (2.27 kg/a)) was 9.0. Further, the “Canker Size” value (rate 5 lbs/a (2.27 kg/a)) is 0.0 cm. In addition, the “Shoot Incidence” value (rate 5 lbs/a (2.27 kg/a)) stood at 1.0.
